Experimental data from publication PMC5620575 (Pharmaceutics, 2017).
≈ marks a conversion by molar mass, not a printed value.

Experiments:
Streptococcus pneumoniae = tested on: Streptococcus pneumoniae; set-up: method as in PMID 12467705, PMID 15911326, PMID 17140706, PMID 19376613, PMID 23811087; conditions: cited from earlier work
[1] = tested on: Staphylococcus aureus and Enterococci spp; set-up: method as in PMID 12467705, PMID 15911326, PMID 17140706, PMID 19376613, PMID 23811087; conditions: clinical isolates; cited from earlier work
[2] = blood to plasma partition; assay type: in vitro ADME; conditions: heparinized whole blood, rabbit blood, 37 °C, n = 3
Description: The spiked blood samples were kept at 37 °C in a shaking water bath for one hour, and plasma was then obtained by centrifugation at 37 °C. Aliquots of about 400 μL, of each plasma sample were kept frozen at −80 °C until analysis. The blood to plasma distribution ratio was determined from the ratio of the nominal total whole blood concentration and the measured plasma concentration for each compound.

[3] = pharmacokinetics after single oral administration as suspension; assay type: in vivo; conditions: New Zealand White, plasma, rabbit, 20 mg/kg, n = 4
Description: The pediatric feeding tube was pushed until it reached the stomach.
(§1) Three groups of rabbits (n = 4, each) received 20 mg/kg oral dose of each compound. […] Accurately weighted amounts of each compound were dissolved/suspended in 20 mL of warm normal saline using an ultrasound water bath. […] The solutions/suspensions of the three compounds were administered orally to the rabbits using a pediatric feeding tubes. After oral administration of each compound, serial blood samples were obtained through the IV catheter, over a period of 10 h after administration. Plasma was obtained from blood by centrifugation, and samples were kept at −80 °C until analysis.
The pharmacokinetic parameters for each of the three compounds including half-life (t1/2), volume of distribution (Vd), elimination rate constant (k), area under the plasma concentration-time curve (AUC), total body clearance (CLT), renal clearance (CLR), and oral bioavailability (F) were determined using the general pharmacokinetic parameter calculation procedures using PKPD tools for Microsoft Excel. The obtained pharmacokinetic parameters for each compound were compared using Statistical Package of Social Sciences (SPSS) to determine the difference in the pharmacokinetic behavior for the three compounds.

S. aureus Giorgio = tested on: S. aureus Giorgio; set-up: method as in ref unpublished data from Jin-Hwan Kwak at Handong Global University; conditions: oral suspension 1 and 4 h after infection, survival recorded for 72 h; ref unpublished data from Jin-Hwan Kwak at Handong Global University; cited from earlier work
Moraxella catarrhalis = tested on: Moraxella catarrhalis; set-up: method as in PMID 12467705, PMID 15911326, PMID 17140706, PMID 19376613, PMID 23811087; conditions: cited from earlier work
Heamophilus influenzae = tested on: Heamophilus influenzae; set-up: method as in PMID 12467705, PMID 15911326, PMID 17140706, PMID 19376613, PMID 23811087; conditions: unit printed only for the neighbouring MICs of the sentence; cited from earlier work
[4] = solubility observed on preparing the oral dose in normal saline; assay type: physicochemical; conditions: 20 mg/kg oral dose in 20 mL of warm normal saline
Description: as §1

Row | blood plasma ratio at 1 h, 250 μg/L [2] | blood plasma ratio at 1 h, 1000 μg/L [2] | AUC [3] [ng·h/mL] | Cmax [3] [ng/mL] | Tmax [3] [h] | bioavailability [3] [%] | SMILES | MIC (Streptococcus pneumoniae) [µg/mL] | MIC [1] [µg/mL] | in vivo activity against systemic mice infection (S. aureus Giorgio) | MIC (Moraxella catarrhalis) [µg/mL] | MIC (Heamophilus influenzae) [µg/mL] | solubility (observed) [4]
1 | 0.96 ± 0.032 | 1.01 ± 0.021 | 5010 ± 2430 | 1620 ± 820 | 1 | 22.1 | O=C1O[C@@H](Cn2ccnn2)CN1c1ccc(N2CCOCC2)c(F)c1 [PH027] | 0.5 (≈ 1.44 µM) | 0.5 to 1.0 | lower in vivo activity | > 16.0 | – | –
2 | 0.772 ± 0.022 | 0.833 ± 0.015 | 369 ± 378 | 69.7 ± 14.8 | 1 | 4.73 | O=C1O[C@@H](Cn2ccnn2)CN1c1ccc(N2CCN(C(=O)C(F)(F)F)CC2)c(F)c1 [PH051] | 1.0 (≈ 2.26 µM) | 0.25 to 0.5 | lower in vivo activity | 8.0 (≈ 18.1 µM) | 64 (≈ 145 µM) | least water-soluble of the three compounds
